From patent US20210145838A1, “SELECTIVE PDE4D INHIBITORS AGAINST DEMYELINATING DISEASES” (Universiteit Hasselt, priority 2018, published 2021)

Tests used:
[1] = system: demyelinated cerebellar brain slices; assay: Ex vivo (re)myelination in lysolecithin-demyelinated cerebellar brain slices; type: cell-based, mouse; conditions: 14-days treatment, vs vehicle
Experimental: FIG. 6: Inhibition of PDE4 by roflumilast induces (re)myelination in demyelinated brain slices. Mouse brain slices ([…]) were trimmed from the cerebellum of p10 C57bl6 pups. After 1 week in culture, brain slices were demyelinated using lysolecithin (16 h) and subsequently treated for 14 days with 5 μM roflumilast or vehicle (0.1% DMSO). Treatment was repeated every 2 days with a 60% medium replenishment. Brain slices were fixated using 4% paraformaldehyde and stained for MBP, neurofilament and counterstained with the nuclear DAPI dye. Three slices per animal were quantified for % myelinated axons (n:2/group).
FIG. 7: Inhibition of PDE4D by gebr32a induces (re)myelination in demyelinated brain slices. Mouse brain slices (370 μM) were trimmed from the cerebellum of p10 C57bl6 pups. […] Three slices per animal were quantified for % myelinated axons (n:2/group). […]
Organotypic cerebellar brain slices were fixed in 4% paraformaldehyde at room temperature for 40 minutes and incubated with primary antibodies diluted in blocking buffer (5% bovine serum albumin (BSA) and 0.05% Tween 20 in PBS) for 4 h at room temperature. […] Quantification was done using Fiji ImageJ by counting the percentage of myelinated axons crossing a predefined cross-sectional path.

[2] = system: cuprizone demyelinated mice; assay: Object location task (spatial memory) in cuprizone-demyelinated mice; type: in vivo, mouse; conditions: for Spatial discrimination index (d2), object location task: day 45 and 47; for Spatial memory in the object location task (D2): day 47, 3 h inter-trial-interval
Description: FIG. 11: Inhibition of PDE4 by roflumilast improves spatial memory upon cuprizone-induced demyelination—a functional measure for remyelination. Forty-two nine-weeks-old male C57bl6 mice were trained for the object location task (OLT) as described previously (Sierksma et al. 2014) (day −14−0). Subsequently, three groups were fed a 0.3% cuprizone diet for 6 weeks to induce demyelination while the control group received a regular chow diet (day 0-42). From day 40 till day 49, control (n=10) and vehicle (n=10) treated animals received a s.c. injection with a 1% DMSO in 0.5% methylcellulose solution or roflumilast (roflu 1 mg/kg (n=11) or roflu 3 mg/kg (n=11) in vehicle) twice a day. All animals were sacrificed at day 49 (A). During the last phase of the cuprizone treatment (demyelination), the OLT was performed at the 3 h inter-trial-interval at day 39.
Next, the OLT was performed during remyelination following cuprizone withdrawal, respectively at 47. […] A one sample t-test was performed to test for spatial memory (e.g. D2≠0*p<0.05; **p<0.01; ***p<0.001). […] All mice not reaching an exploration time of 4 s in either of two trials were excluded from analyses. Extreme values were excluded by means of Dixon's principles of exclusion of extreme values.
FIG. 14: Inhibition of PDE4D by Gebr32a improves spatial memory upon cuprizone-induced demyelination—a functional measure for remyelination. Eighty-eight nine-weeks-old male C57bl6 mice were trained for the object location task (OLT; n=22 per group) as described previously (Sierksma et al. 2014) (day −14−0). Subsequently, three groups were fed a 0.3% cuprizone diet for 6 weeks to induce demyelination while the control group received a regular chow diet (day 0-42). From day 40 till day 49, control and vehicle treated animals received a s.c. injection with a 1% DMSO in 0.5% methylcellulose solution or gebr32a (0.1 mg/kg or 0.3 mg/kg in vehicle) twice a day. All animals were sacrificed at day 49 (A).
Next, the OLT was performed during remyelination following cuprizone withdrawal, respectively at day 45 and 47.
A one sample t-test was performed to test for spatial memory (e.g. D2=/0; *p<0.05; **p<0.01; ***p<0.001). A one-way ANOVA with a Tukey's multiple comparison test was performed. All mice not reaching an exploration time of 4 s in either of two trials were excluded from analyses. Extreme values were calculated and excluded by means of Dixon's principles of exclusion of extreme values.
At the start of the experiment, all animals were phenotyped for baseline cognitive performance in the object location task. Afterwards, 4 groups were defined (n1=13, n2=16, n3=11, n4=11) and group 2, 3 and 4 were subjected to a 0.3% w/w cuprizone diet (Bis(cyclohexanone)-oxaldihydrazone) (Sigma-Aldrich, United States) for 42 days. […]

Compound	MBP alignment with neurofilament (% myelinated axons) ([1]; 0.5 μM)	Spatial discrimination index (d2), object location task ([2]; 0.1 mg/kg s.c. twice a day)	Spatial discrimination index (d2), object location task ([2]; 0.3 mg/kg s.c. twice a day)	MBP alignment with neurofilament (% myelinated axons) ([1]; 5 μM)	Spatial memory in the object location task (D2) ([2]; 1 mg/kg s.c. twice a day)	Spatial memory in the object location task (D2) ([2]; 3 mg/kg s.c. twice a day)
OC(CN1CCOCC1)Cn1ccc(-c2ccc(OC(F)F)c(OC3CCCC3)c2)n1 (stereo not drawn) [Gebr32a]	four-fold increase	restored the spatial discrimination index (d2) to a level comparable to that of the control animals	restored the spatial discrimination index (d2) to a level comparable to that of the control animals	–	–	–
O=C(Nc1c(Cl)cncc1Cl)c1ccc(OC(F)F)c(OCC2CC2)c1 [roflumilast]	–	–	–	four-fold increase	did not show a recovery of the spatial memory	significant recovery of spatial memory
